Data on 129 compounds can be found in the OPERA property sets (Mansouri et al. 2018).

≈ marks a conversion by molar mass, not a printed value.

Conditions in the first series: not given
Compound `Clc1ccc(Cn2cncn2)cc1` displayed a logP of 1.84.
The same measure, in the same setting: then `CCCC(=O)n1ncc2c(O)ncnc21`, with 0.85; and `Cc1ccc([N+](=O)[O-])cc1C`, with 2.91; and `Cc1ccccc1NCc1cnc2nc(N)nc(N)c2c1C`, with 1.98.
`COc1ccc(C(N)=S)cc1` came in with a logP of 1.63.
For `Cc1ccc(C(=O)CS(=O)(=O)c2ccc(C)cc2)cc1`, the logP came to 3.3.
Same read-out and setting: the figure for `CCOC(=O)c1ccccc1C(=O)OCC` is 2.42; for `Cc1nc(NCC(C)O)c(C#N)cc1-c1ccccc1` (centres undefined) it is 2.72.
For the compound `Cc1cccc(OCCN(C)C)c1`, the logP is 2.05.
On the same count and under the same terms, then `Cc1ccc(Cl)cc1[N+](=O)[O-]`, with 3.05.
For `CC1=CC(=O)C(C)=C(C)C1=O`, the logP came to 1.82.
On to `CCCC(CCC)=NNC(N)=Nc1ccccc1`, for which the lipophilicity (logP) stood at 2.33.
`S=C1NCCN1` yielded a log partition coefficient (logP) of -0.66.
The same measure, in the same setting: the figure for `O=C(O)C(c1ccc(Cl)cc1)c1ccc(Cl)cc1` is 4.64.
The same measure, in the same setting: then `Cc1cn(C2CC(O)C(CN)O2)c(=O)[nH]c1=O` (centres undefined), with -2.05.
Regarding `CC(=O)OCN1C(=O)c2ccccc2C1=O`, the logP stood at 1.15.
On the same count and under the same terms, the figure for `CC(C)n1ccc(=O)c(O)c1` is -0.02.
For `CN(C)C1CSSC1`, the solubility worked out at 13.4 mM (≈ 2000 µg/mL).
Turning to `CCCC(C)C=O` (centres undefined), the solubility stood at 41.9 mM (≈ 4200 µg/mL).
Regarding `CCCCCCCCC(=O)OC`, the logP worked out at 4.32.
In turn, `CC(=O)NCCc1c[nH]c2ccccc12` came in with a logP of 1.41.
`CN(C)C(=O)COC(=O)c1ccccc1O`: the logP turned out to be 1.21.
Take `C=CCN(CC=C)CC=C`: the solubility was 18.2 mM (≈ 2500 µg/mL).
With `CCCCSP(=O)(SCCCC)SCCCC`, the log partition coefficient (logP) was 5.7.
`Cc1cn([C@H]2C=C[C@@H](CO)O2)c(=O)[nH]c1=S` registered a logP of 0.09.
Still for that read-out and setting: the figure for `O=C(O)CCCCc1ccccc1` is 2.94; for `Nc1ccc(O)c([N+](=O)[O-])c1` it is 0.96.
The compound `NC(Cc1ccc(O)c(O)c1)C(=O)OCCc1ccc(Cl)cc1` (centres undefined) had a logP of 2.33.
`O=C(O)c1ccccc1S(=O)(=O)O` had a solubility of 2470 mM (≈ 500000 µg/mL).
`CN1CCN(Cc2cccc(COc3ccccc3)c2)CC1` registered a logP of 3.05.
`CCc1cc2c(s1)N(C)C(=O)CN=C2c1ccccc1Cl` registered a logP of 3.18.
As for `COC1=CC(=O)C=CC1=O`, the logP is -0.06.
On to `CC1CCCCN1CCCOC(=O)c1ccc(Cl)c(Cl)c1` (centres undefined), for which the solubility is 0.0606 mM (≈ 20 µg/mL).
`Cc1cccc2c1ccc1ccccc12` registered a logP of 5.08.
On the same count and under the same terms, then `Cc1cc(Cc2ccc(Cl)c(Cl)c2)c(Cl)cc1Cl`, with 7.26; and `CC(=O)Nc1ccc(C(=O)O)c(O)c1`, with 1.62.
Turning to `N[C@@H](Cc1cnc[nH]1)C(=O)O`, the logP is -3.32.
Still for that read-out and setting: then `O=C(O)CC[Se]Cc1ccccc1`, with 1.67.
The same measure, in the same setting: the figure for `COc1cccc(OC)c1OCCN(C)C` is 1.05; for `CC(=O)Nc1ncc2ncn(COCCO)c2n1` it is -1.33; for `COc1ccc(C=NNC(=N)N)cc1` it is 0.29.
On the same count and under the same terms, the figure for `CCCN1C(=O)C(=Cc2ccc([N+](=O)[O-])o2)SC1=NC(C)=O` is 1.17; for `CS(=O)CCCOc1ccc2ccccc2c1` (centres undefined) it is 2.42.
In turn, `N#CCCCCC#N` displayed a logP of -0.32.
The compound `COC(=O)C1=C(C)NC(C)=C(C(=O)OCC(C)C)C1c1ccccc1[N+](=O)[O-]` (centres undefined) showed a logP of 3.26.
Regarding `O=[N+]([O-])c1ccc(Cl)cc1Cl`, the logP was 3.07.
Take `COc1cc(Cl)c(Cl)cc1Cl`: the logP was found to be 3.85.
In turn, `COc1c(Cl)cc(Cl)cc1Cl` displayed a logP of 4.11.
Same read-out and setting: the figure for `CCOC(=O)OCn1ncc2c(O)ncnc21` is 0.21; for `O=C1OC(=Nc2ccc(Cl)cc2)C2=C1CCCC2` it is 3.84; for `ClC1=CC2(Cl)C3C(Cl)C(Cl)C(Cl)C3C1(Cl)C2(Cl)Cl` (centres undefined) it is 5.91.
On to `CN1C(=O)CCC1(O)c1cccnc1` (centres undefined), for which the logP is -0.57.
Still for that read-out and setting: the figure for `CCOC(=O)COc1cccc2ccccc12` is 2.9; for `Clc1cc(Cl)c(-c2cc(Cl)c(Cl)cc2Cl)cc1Cl` it is 6.34; for `Clc1ccc(Cl)c(-c2cc(Cl)c(Cl)cc2Cl)c1` it is 5.68.
Same read-out and setting: the figure for `NC(=O)c1ccc(N)nc1` is 0.7.
On the same count and under the same terms, then `Brc1cccc(-c2ccccc2)c1`, with 4.85.
`Clc1ccc(Cn2cncn2)cc1Cl` yielded a logP of 2.54.
On the same count and under the same terms, the figure for `C[N+](C)(C)CC1CCCC1.[I-]` is -2; for `CCSCCn1cnc2c(=N)n(C)c(=O)[nH]c21` it is 0; for `Cc1cn([C@H]2C[C@H](N=[N+]=[N-])[C@@H](CO)O2)c(=O)[nH]c1=S` it is 1.07.
Take `Clc1ccc2cc(Cl)c(Cl)cc2c1`: the logP came to 5.12 and the solubility amounted to 7.21e-05 mM (≈ 0.0167 µg/mL).
`C=CCOc1ccccc1OCC(CNC(C)C)OC(=O)C=CC` (centres undefined) showed a logP of 3.65.
Still for that read-out and setting: the figure for `CN(C)CCCN1c2ccccc2Sc2ccccc21.Cl` is 2.94; for `CC(=O)Oc1ccc(NC(=O)C(Cl)Cl)cc1` it is 1.9.
Still for that read-out and setting: then `CNC[C@H](O)c1ccc(O)c(O)c1`, with -1.2.
`ClCCCBr` showed a log partition coefficient (logP) of 2.18.
Still for that read-out and setting: the figure for `COc1ccc(C#N)cc1` is 1.7.
For `CC1=CC(=O)CC(C)(C)C1`, the logP was 1.7.
On the same count and under the same terms, then `COC1=CC(=O)C(OC)=C(OC)C1=O`, with 0.22; and `CCN(CC)CCCC(C)N=c1cc2n(-c3ccc(Cl)cc3)c3ccccc3nc-2cc1Nc1ccc(Cl)cc1` (centres undefined), with 7.92; and `Cc1cc(C)c(C#[N+][O-])c(C)c1`, with 3.21.
For `Nc1ccc(S(=O)(=O)O)c(N)c1`, the logP was -4.65.
On to `Cc1ccc(-c2ccc(C)cc2)cc1`, for which the lipophilicity (logP) was 5.09.
As to `COC1=C(OC)C(=O)C=CC1=O`, the logP came out at 0.34.
Turning to `N#CCCCCCCC#N`, the logP worked out at 0.59.
Still for that read-out and setting: then `ClCC1CO1` (centres undefined), with 0.45.
Same read-out and setting: the figure for `CC1=NS(=O)(=O)c2cnccc2N1` is -0.41; for `CC(=O)c1ccc2cc(C(C)C(=O)OCC(=O)N(C)C)ccc2c1` (centres undefined) it is 2.05.
For `CC(CCC(=O)NCC(=O)O)C1CCC2C3CCC4CC(O)CCC4(C)C3CC(O)C12C` (centres undefined), the logP is 2.25.
For `O=P(OC(Cl)CCCl)(OC(Cl)CCCl)OC(Cl)CCCl` (centres undefined), the solubility came to 0.232 mM (≈ 100 µg/mL).
Still for that read-out and setting: then `O=C(O)CN(CC(=O)O)Cc1cc2c(c(O)c1O)C(=O)c1ccccc1C2=O`, with 15.6 mM (≈ 6000 µg/mL).
For `Cc1nc2ccc([N+](=O)[O-])cc2[nH]1`, the logP was 1.94.
On the same count and under the same terms, the figure for `Nc1ccc([N+](=O)[O-])cn1` is 0.65; for `Cc1nc(N2CCOCC2)c(C#N)cc1-c1ccccc1` it is 3.65; for `COc1cc(Cl)c(Cl)c(Cl)c1O` it is 3.72.
Consider `CCCCCCCCCCCCN1CC(C(=O)O)CC1=O` (centres undefined), for which the logP was found to be 2.6.
As for `COc1ccc(C(=O)CS(=O)(=O)c2ccccc2)cc1`, the logP came to 2.18.
`Cc1ccc(Br)c(C)c1NC(=O)CN(CC(=O)O)CC(=O)O` registered a logP of -0.28.
For `CCOCCOCCOCC`, the logP came out at 0.39.
The same measure, in the same setting: then `CCCOC(=O)c1cc(=O)[nH]c(=O)[nH]1`, with 1.1; and `CCOC(C(=O)OCc1ccccc1)C(C)C` (centres undefined), with 3.29.

Staying with this series, now noted: 20 °C.
With `C=CC(=O)NCO`, the solubility came to 6460 mM (≈ 653000 µg/mL).
Consider `O=C1OC2(c3ccc(O)cc3Oc3cc(O)ccc32)c2ccccc21`, for which the solubility came to 0.15 mM (≈ 50 µg/mL).
Same read-out and setting: then `N#CCCCCC#N`, with 740 mM (≈ 80000 µg/mL); and `CCOP(=S)(OCC)ON=C(C#N)c1ccccc1Cl`, with 0.00511 mM (≈ 1.7 µg/mL); and `COc1c(Cl)cc(Cl)cc1Cl`, with 0.0473 mM (≈ 10 µg/mL).
With `ClCCOCCCl`, the solubility turned out to be 120 mM (≈ 17200 µg/mL).
Consider `Nc1ccc(Cl)c(Cl)c1`, for which the solubility was 0.568 mM (≈ 92 µg/mL).

Staying with this series, now noted: 23.0 °C.
The compound `C=CC(C)(O)CCC=C(C)C` (centres undefined) registered a log10 OH rate constant (cm³/molecule/s) of -9.8.
On the same count and under the same terms, the figure for `CC(=O)CC(C)(C)O` is -11.4; for `CCCCOCCOCCO` it is -10.1; for `C=C1[C@H]2CC[C@@H]3[C@H]2C(C)(C)CCC[C@]13C` it is -10.3.
Compound `COC(OC)OC` registered a log10 OH rate constant (cm³/molecule/s) of -11.2.
Regarding `C=C1C2CCC(C2)C1(C)C` (centres undefined), the log10 OH rate constant (cm³/molecule/s) was -10.3.

Still in this series, the particulars now being: 24 °C.
`Clc1cc(Cl)c(-c2cc(Cl)c(Cl)cc2Cl)cc1Cl` registered a solubility of 2.63e-06 mM (≈ 0.00095 µg/mL).

The series is the same for the next values; noted with them: 25 °C.
Regarding `Cc1ccccc1C(C)C`, the solubility worked out at 0.174 mM (≈ 23.3 µg/mL).
On the same count and under the same terms, the figure for `CC(Cl)C(Cl)Cl` (centres undefined) is 12.9 mM (≈ 1900 µg/mL); for `CCCc1ccc(O)cc1` it is 9.38 mM (≈ 1280 µg/mL); for `O=C(O)Cc1ccc(O)cc1` it is 399 mM (≈ 60700 µg/mL).
Same read-out and setting: the figure for `Oc1nc(O)nc(O)n1` is 15.5 mM (≈ 2000 µg/mL); for `NS(=O)(=O)c1cc2c(s1)SCCC2=O` it is 0.281 mM (≈ 70 µg/mL).
In turn, `Cl[C@H]1[C@H](Cl)[C@@H](Cl)[C@@H](Cl)[C@H](Cl)[C@H]1Cl` (racemic) registered a solubility of 0.00942 mM (≈ 2.74 µg/mL).
`Cc1ccc(O)c(C)c1`: the solubility came to 64.4 mM (≈ 7870 µg/mL).
The same measure, in the same setting: then `O=Nc1ccc2ccccc2c1O`, with 2.89 mM (≈ 500 µg/mL); and `Brc1cc(Br)c(OCCOc2c(Br)cc(Br)cc2Br)c(Br)c1`, with 0.000291 mM (≈ 0.2 µg/mL); and `Oc1cc(Cl)c(Cl)cc1Cl`, with 6.08 mM (≈ 1200 µg/mL).
On the same count and under the same terms, then `c1ccc2c(c1)ccc1c3ccc4ccccc4c3[nH]c21`, with 3.78e-05 mM (≈ 0.0101 µg/mL).

The same series, now with this note: 25.0 °C.
`FCC(F)(F)C(F)F` came in with a log10 OH rate constant (cm³/molecule/s) of -14.
The compound `CC(F)(Cl)Cl` came in with a log10 OH rate constant (cm³/molecule/s) of -14.2.
Compound `COC(=O)C(C)O` (centres undefined) registered a log10 OH rate constant (cm³/molecule/s) of -11.6.
In the case of `CCOCC=O`, the log10 OH rate constant (cm³/molecule/s) was -10.8.
Turning to `CC(=O)CC1C(CC=O)C1(C)C` (centres undefined), the log10 OH rate constant (cm³/molecule/s) was -10.3.
On the same count and under the same terms, then `CC(C)CCO`, with -10.9.
As to `CC(C)(C)N`, the log10 OH rate constant (cm³/molecule/s) was -10.9.
On the same count and under the same terms, the figure for `C=CC(C)(C)O` is -10.2; for `Cl[C@H]1[C@H](Cl)[C@@H](Cl)[C@@H](Cl)[C@H](Cl)[C@H]1Cl` (racemic) it is -12.8.
The compound `CCNC(=O)OC` had a log10 OH rate constant (cm³/molecule/s) of -11.
Still for that read-out and setting: the figure for `COCCOC` is -10.6.
Same read-out and setting: the figure for `COCOC` is -11.3.

Staying with this series, now noted: 27.0 °C.
`O=C1C=CC(=O)C=C1`: the log10 OH rate constant (cm³/molecule/s) is -11.3.

Staying with this series, now noted: 30 °C.
In the case of `CN(C)C`, the solubility turned out to be 15100 mM (≈ 890000 µg/mL).
`Nc1ccccc1[N+](=O)[O-]` yielded a solubility of 10.6 mM (≈ 1470 µg/mL).
